From patent US20040006047A1, “Heterocyclic amides, a process for their preparation, compositions comprising them and their use” (priority 2001, published 2004) come the findings set out here.

Regarding `O=C(NC1CCOCC1)c1cnccc1C(F)(F)F` [Example A, N-(Tetrahydropyran-4-yl)-4-trifluoromethylnicotinamide], the melting point (in general, the temperature, or range, at which the solid turns liquid) is 149 to 150 °C.

Compound `O=C(NC1CC[S+]([O-])CC1)c1cnccc1C(F)(F)F` (stereo not shown) [Example C, N-(Tetrahydrothiopyran-4-yl)-4-trifluoromethylnicotinamide S-oxide] yielded a melting point of 243 to 244 °C.

Consider `O=C(NC1CCS(=O)(=O)CC1)c1cnccc1C(F)(F)F` [Example D, N-(Tetrahydrothiopyran-4-yl)-4-trifluoromethylnicotinamide S,S-dioxide], for which the melting point is 248 °C (dec.).

Compound `CC1(C)OCC(NC(=O)c2cnccc2C(F)(F)F)CO1` [Example E, N-(2,2-Dimethyl-1,3-dioxa-cyclohexyl)-4-trifluoromethylnicotinamide] showed a melting point of 155 to 156 °C.
